Here are results for one compound from US20240216410A1, “METHODS AND COMPOSITIONS FOR TREATING CANCER THERAPY-INDUCED NEUTROPENIC FEVER AND/OR GVHD” (BOARD OF REGENTS, THE UNIVERSITY OF TEXAS SYSTEM, priority 2021, published 2024).

Entries after “also recorded” stand apart in the source; their conditions may differ.

A short description of series [1]: Meropenem concentrations in cecal contents after subcutaneous injection (LC-MS). Type of series: in vivo, mice. Conditions: 4, 8, 24, 48 and 96 hours. On the procedure: (§1) To further explore a potential causal relationship between meropenem and intestinal GVHD, the effects of meropenem on GVHD in a mouse model of allo-HSCT were examined. A method of administering meropenem to mice was first developed that would better mimic the effects of meropenem on the intestinal microbiome of patients, which is typically given every 8 hours intravenously. Previously, antibiotics were administered subcutaneously to mice (25), and meropenem concentrations were quantified in the cecal lumen of mice 4, 8, 24, 48 and 96 hours after subcutaneous injection. […] Next, drinking water was evaluated as a means of continuously administering meropenem to mice, using bacterial density quantified by 16S ribosomal RNA (16S rRNA) gene quantitative PCR (qPCR) to gauge reductions of the intestinal microbiota.
Pharmacokinetics of meropenem by Triple Quadruple liquid chromatography-mass spectrometry (LC-MS). C57BL/6 mice were treated with 10 mg of meropenem by subcutaneously injection. Cecal contents were collected prior to, 4, 8, 24, 48, and 96 hours after meropenem injection. To determine the relative abundance of meropenem in mouse cecum samples, extracts were prepared and analyzed with a THERMO […]™ TSQ […]™ triple quadruple mass spectrometer coupled with a DIONEX™ ULTIMATE™ 3000 HPLC system. […]

For another series, the system named is colonic mucus layer. The series can be described thus: Murine GVHD model: colonic mucus layer thickness (PAS staining). Particulars: day 18; vs untreated GVHD mice and syngeneic mice. Type of series: in vivo, mice. The protocol:
Next, assessed was the impact of meropenem treatment on the dense colonic mucus layer of mice with GVHD.
Allo-HSCT recipient mice were treated with meropenem as in FIG. 15A and with xylose from days 13 to 20 (FIG. 18F). […] Importantly, in vitro, growth of mouse and human-derived BT in carbohydrate-poor media was augmented by xylose (FIG. 23B).
Xylose administration. D-(+)-xylose (X3877, SIGMA-ALDRICH®) was dissolved in phosphate buffer pH 8.0 with meropenem or in water without meropenem and given at a concentration of 0.5% from days 13 to 20 after allo-HSCT.
Histological and immunohistochemistry analysis. […] Pathology scores were quantified by a blinded pathologist. […] Sections were imaged using an APERIO® AT2.

A short description of series [2]: Murine GVHD model: fecal SCFAs by IC-MS. In kind it is in vivo. Particulars: day 18; meropenem-treated allo-HSCT mice. The text has this: In some cases, meropenem-induced intestinal dysbiosis contributes to aggravated GVHD via loss of beneficial commensal bacteria. In some embodiments, meropenem-treated allogeneic mice show a loss of Clostridia abundance and a reduction in SCFA levels, including butyrate. On day 7, or 4 days following the start of meropenem treatment, Clostridia were depleted in meropenem-treated mice and remained so at 6 days after stopping 5 meropenem (FIG. 20A).
Short Chain Fatty Acids profiling by ion chromatography-mass spectrometry (IC-MS). To determine the relative abundance of short chain fatty acids in mouse feces samples, extracts were prepared and analyzed by ultra-high resolution mass spectrometry (HRMS). Fecal pellets were homogenized with a […]® Tissue Homogenizer. Metabolites were extracted using 1 mL ice-cold 0.1% Ammonium hydroxide in 80/20 (v/v) methanol/water. Extracts were centrifuged at 17,000 g for 5 min at 4° C., and supernatants were transferred to clean tubes, followed by evaporation to dryness under nitrogen. Dried extracts were reconstituted in deionized water, and 5 μL was injected for analysis by IC-MS. IC mobile phase A (MPA; weak) was water, and mobile phase B (MPB; strong) was water containing 100 mM KOH. A THERMO […]™ DIONEX™ ICS-5000+ system included a THERMO FISHER […]™ IONPAC™ AS11 column ([…], 250×2 mm) with column compartment kept at 30° C. […]

The next series concerns intestinal microbiota. The series can be described thus: Fecal bacterial density by 16S rRNA gene qPCR in normal mice given meropenem in drinking water. In kind it is in vivo. Particulars: 0.625 g/L meropenem in drinking water. The protocol:
as §1
Quantification of fecal bacterial density. Genomic DNA was isolated from stool as described above. qPCR was performed as previously described (66). In brief, 16S rRNA gene sequences were amplified from total fecal DNA using the primers 926F (5′-[…]-3′, where K is a G or a T; SEQ ID NO:2) and 1062R (5′-[…]-3′, where R is an A or a G; SEQ ID NO:3). […] To determined bacterial density, a plasmid with a 16S rRNA gene of a murine Blautia isolate was generated in the pCR4 backbone and used as a standard.
A general note: Quantitative PCR measures a nucleic acid by following its amplification.

For `C[C@@H](O)[C@H]1C(=O)N2C(C(=O)O)=C(S[C@@H]3CN[C@H](C(=O)N(C)C)C3)[C@H](C)[C@H]12` [meropenem], the “meropenem concentrations in the cecum” value in series [1] is listed as “increase in meropenem concentrations in the cecum at 4 hours after injection, which rapidly declined thereafter”. For the same compound, the “colonic mucus layer thickness” value in the series with colonic mucus layer is recorded as “significantly thinned colonic mucus layer”. The “fecal levels of SCFAs” value in series [2] was “significantly decreased; also recorded: reduced fecal levels of SCFAs, with particularly dramatic reductions in butyrate and valerate”. For the same compound, the “reduction in fecal bacterial density” value with intestinal microbiota is on record as “substantial one-log reduction in fecal bacterial density”.
